ChEMBL document CHEMBL5042502, “Discovery of Potent and Selective 2-(Benzylthio)pyrimidine-based DCN1-UBC12 Inhibitors for Anticardiac Fibrotic Effects” (J Med Chem, 2022)
pIC50, pKi: −log10 of the molar value. The source made the active and inactive calls. No cut-off for these calls is given here.

Assays:
[1] = system: Fibroblast of cardiac tissue; experiment: Effect on Cul1 neddylation in mouse cardiac fibroblast at 1 uM preincubated for 2 hrs by Western blot analysis; type: functional, cell-based
[2] = system: Fibroblast of cardiac tissue; experiment: Reversal of Ang II-induced increase in cullin 3 secretion in mouse cardiac fibroblast at 1 uM preincubated for 2 hrs followed by Ang-II stimulation and further incubated for 24 hrs by western blot analysis; type: functional, cell-based; conditions: time 26.0 hrs
[3] = system: Fibroblast of cardiac tissue; experiment: Effect on Ang II-induced in Cul2 neddylation in mouse cardiac fibroblast at 1 uM preincubated for 2 hrs followed by Ang-II stimulation and further incubated for 24 hrs by western blot analysis; type: functional, cell-based; conditions: time 26.0 hrs
[4] = system: Fibroblast of cardiac tissue; experiment: Effect on Cul4A neddylation in mouse cardiac fibroblast at 1 uM preincubated for 2 hrs by Western blot analysis; type: functional, cell-based
[5] = system: Fibroblast of cardiac tissue; experiment: Effect on Ang II-induced in Cul1 neddylation in mouse cardiac fibroblast at 1 uM preincubated for 2 hrs followed by Ang-II stimulation and further incubated for 24 hrs by western blot analysis; type: functional, cell-based; conditions: time 26.0 hrs
[6] = Toxicity in 24 hr starved C57BL/6 mouse assessed as pathological change in spleen at 2 g/Kg administered via gavage measured after 2 weeks by H and E staining based histopathological analysis; type: tissue-based; conditions: in vivo, po, 2000 mg/kg
Cardiac fibroblast [7] = experiment: Inhibition of DCN1 in Ang II-treated Sprague-Dawley rat cardiac fibroblast assessed as inhibition of cell proliferation preincubated for 2 hrs followed by Ang-II stimulation and further incubated for 24 hrs by MTT assay; type: cell-based; conditions: dose 0.1-3 µM, time 26.0 hrs
[8] = system: Fibroblast of cardiac tissue; experiment: Antifibrotic effect in SD rat cardiac fibroblast transfected with DCN1 siRNA assessed as effect on collagen III expression at 1 uM preincubated for 2 hrs followed by Ang II-stimulation and further incubated for 24 hrs by western blot analysis; type: functional, cell-based; conditions: time 26.0 hrs
[9] = Toxicity in 24 hr starved C57BL/6 mouse assessed as change in cardiac function at 2 g/Kg administered via gavage measured after 2 weeks by echocardiography; conditions: in vivo, po, 2000 mg/kg
DCN1-like protein 3 = biological target: T1, DCN1-like protein 3 (Homo sapiens, UniProt Q8IWE4); experiment: Binding affinity to DCN3 (unknown origin) assessed as inhibitory constant
T1 sequence (Q8IWE4 whole entry): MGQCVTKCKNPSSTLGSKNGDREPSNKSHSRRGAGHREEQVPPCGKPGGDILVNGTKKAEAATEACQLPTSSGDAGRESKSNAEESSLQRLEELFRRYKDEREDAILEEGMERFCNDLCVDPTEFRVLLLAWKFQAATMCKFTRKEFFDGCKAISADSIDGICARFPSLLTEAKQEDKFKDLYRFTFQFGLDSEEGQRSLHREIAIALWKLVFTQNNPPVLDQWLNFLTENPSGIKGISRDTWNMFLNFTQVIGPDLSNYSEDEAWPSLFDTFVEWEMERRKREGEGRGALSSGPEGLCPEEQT

Cardiac fibroblast [10] = experiment: Inhibition of intracellular DCN1 in Sprague-Dawley rat cardiac fibroblast measured between 42 to 62 degC at 10 uM incubated for 5 hrs by cellular thermal shift assay; type: cell-based
Cardiac fibroblast [11] = experiment: Inhibition of DCN1 in Ang II-treated Sprague-Dawley rat cardiac fibroblast assessed as decrease in cell migration preincubated for 2 hrs followed by Ang-II stimulation and further incubated for 24 hrs by scratch wound healing assay based microscopy; conditions: Sprague-Dawle, time 26.0 hrs
[12] = system: Fibroblast of cardiac tissue; experiment: Effect on Cul2 neddylation in mouse cardiac fibroblast at 1 uM preincubated for 2 hrs by Western blot analysis; type: functional, cell-based
DCN1-like protein 1 [13] = biological target: T2, DCN1-like protein 1 (Homo sapiens, UniProt Q96GG9)
Target sequence in this assay (Q96GG9 whole entry, looked up): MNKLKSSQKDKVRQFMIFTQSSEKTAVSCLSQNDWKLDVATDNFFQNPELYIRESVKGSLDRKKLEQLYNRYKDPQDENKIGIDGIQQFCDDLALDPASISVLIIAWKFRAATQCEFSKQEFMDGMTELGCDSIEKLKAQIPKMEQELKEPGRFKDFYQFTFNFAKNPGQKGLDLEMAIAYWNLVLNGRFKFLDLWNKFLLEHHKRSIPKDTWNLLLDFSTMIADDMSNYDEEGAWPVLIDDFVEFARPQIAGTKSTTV
Description: Binding affinity to DCN1 (unknown origin) assessed as Gibbs free energy change by MM-PBSA method

Cardiac fibroblast [14] = experiment: Inhibition of DCN1 in Sprague-Dawley rat cardiac fibroblast assessed as suppression in DCN1-UBC12 interaction by measuring reduction in UBC12 level at 10 uM incubated for 5 hrs co-incubated with DCN1 antibody by co-immunoprecipitation pull down assay; type: cell-based
[15] = system: Fibroblast of cardiac tissue; experiment: Effect on Cul5 neddylation in mouse cardiac fibroblast at 1 uM preincubated for 2 hrs by Western blot analysis; type: functional, cell-based
[16] = Toxicity in 24 hr starved C57BL/6 mouse assessed as pathological change in kidney at 2 g/Kg administered via gavage measured after 2 weeks by H and E staining based histopathological analysis; type: tissue-based; conditions: in vivo, po, 2000 mg/kg
Cardiac fibroblast [17] = experiment: Inhibition of DCN1 in Ang II-treated Sprague-Dawley rat cardiac fibroblast assessed as inhibited cell migration at 0.1 to 3 uM incubated for 24 hrs stained with crystal violet by transwell migration assay; type: cell-based; conditions: Sprague-Dawle, dose 0.1-3 µM
[18] = system: Fibroblast of cardiac tissue; experiment: Effect on Ang II-induced in Cul4B neddylation in mouse cardiac fibroblast at 1 uM preincubated for 2 hrs followed by Ang-II stimulation and further incubated for 24 hrs by western blot analysis; type: functional, cell-based; conditions: time 26.0 hrs
DCN1-like protein 4 = biological target: T3, DCN1-like protein 4 (Homo sapiens, UniProt Q92564); experiment: Binding affinity to DCN4 (unknown origin) assessed as inhibitory constant
T3 sequence (Q92564 whole entry): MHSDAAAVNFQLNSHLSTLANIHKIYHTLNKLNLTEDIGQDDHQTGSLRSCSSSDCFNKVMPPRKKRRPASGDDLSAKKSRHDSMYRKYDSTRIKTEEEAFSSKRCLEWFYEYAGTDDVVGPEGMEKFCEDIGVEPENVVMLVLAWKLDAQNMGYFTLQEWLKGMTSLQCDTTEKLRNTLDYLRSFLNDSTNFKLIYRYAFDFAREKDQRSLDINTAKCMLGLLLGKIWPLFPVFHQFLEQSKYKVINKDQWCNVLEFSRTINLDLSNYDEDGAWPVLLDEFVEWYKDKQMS

[19] = system: Fibroblast of cardiac tissue; experiment: Effect on Cul4B neddylation in mouse cardiac fibroblast at 1 uM preincubated for 2 hrs by Western blot analysis; type: functional, cell-based
Cardiac fibroblast [20] = experiment: Inhibition of DCN1 in TGF-beta-treated Sprague-Dawley rat cardiac fibroblast assessed as inhibition of cell proliferation at 0.1 to 3 uM preincubated for 2 hrs followed by TGF-beta stimulation and further incubated for 24 hrs by MTT assay; type: cell-based; conditions: dose 0.1-3 µM, time 26.0 hrs
DCN1-like protein 1 [21] = biological target: T2, DCN1-like protein 1; experiment: Inhibition of GST-tagged DCN1 (unknown origin) using AcUBE2M1-21 incubated for 30 mins by HTRF assay
Target sequence in this assay (Q96GG9 whole entry): as the sequence (Q96GG9 whole entry, looked up) above

DCN1-like protein 2 = DCN1-like protein 2 (Homo sapiens, UniProt Q6PH85); experiment: Binding affinity to DCN2 (unknown origin) assessed as inhibitory constant
DCN1-like protein 2, sequence (Q6PH85 whole entry): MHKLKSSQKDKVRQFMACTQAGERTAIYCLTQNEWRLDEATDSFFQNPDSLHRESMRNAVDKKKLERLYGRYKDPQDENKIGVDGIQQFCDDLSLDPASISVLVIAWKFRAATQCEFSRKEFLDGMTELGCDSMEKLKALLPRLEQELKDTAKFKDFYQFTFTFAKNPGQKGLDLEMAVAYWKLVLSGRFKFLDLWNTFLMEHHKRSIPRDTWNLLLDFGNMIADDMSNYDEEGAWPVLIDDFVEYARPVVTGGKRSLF

[22] = system: Fibroblast of cardiac tissue; experiment: Reversal of TGF-beta-induced increase in collagen I secretion in mouse cardiac fibroblast at 1 uM preincubated for 2 hrs followed by TGF-beta stimulation and further incubated for 24 hrs by Western blot analysis; type: functional, cell-based; conditions: time 26.0 hrs
[23] = system: Fibroblast of cardiac tissue; experiment: Reversal of Ang II-induced increase in DCN1 secretion in mouse cardiac fibroblast at 1 uM preincubated for 2 hrs followed by Ang-II stimulation and further incubated for 24 hrs by western blot analysis; type: functional, cell-based; conditions: time 26.0 hrs
[24] = system: Fibroblast of cardiac tissue; experiment: Reversal of Ang II-induced increase in collagen I secretion in mouse cardiac fibroblast at 1 uM preincubated for 2 hrs followed by Ang-II stimulation and further incubated for 24 hrs by western blot analysis; type: functional, cell-based; conditions: time 26.0 hrs
DCN1-like protein 1 [25] = biological target: T2, DCN1-like protein 1; experiment: Binding affinity to DCN1 (unknown origin) assessed as inhibitory constant
Target sequence in this assay (Q96GG9 whole entry): as the sequence (Q96GG9 whole entry, looked up) above

[26] = system: Fibroblast of cardiac tissue; experiment: Reversal of Ang II-induced increase in collagen III secretion in mouse cardiac fibroblast at 1 uM preincubated for 2 hrs followed by Ang-II stimulation and further incubated for 24 hrs by western blot analysis; type: functional, cell-based; conditions: time 26.0 hrs
DCN1-like protein 1 [27] = biological target: T2, DCN1-like protein 1; remark: listed apart in the source
Target sequence in this assay (Q96GG9 whole entry, looked up): as above
Description: Binding affinity to DCN1 (unknown origin) assessed as change in entropy by MM-PBSA method

SMILES: COc1cc(-c2nc(SCc3ccc(Cl)cc3)nc(Sc3nnnn3C)c2C#N)cc(OC)c1OC
- Activity [1]: Active
- Activity [2]: Active
- Activity [3]: Active
- Activity [4]: Active
- Activity [5]: Active
- Activity [6]: Non-Toxic
- inhibition (Cardiac fibroblast [7]): Active
- inhibition [8]: inactive
- Activity [9]: Non-Toxic
- pKi (DCN1-like protein 3): 3.41
- inhibition (Cardiac fibroblast [10]): Active
- inhibition (Cardiac fibroblast [11]): Active
- Activity [12]: Active
- deltaG (DCN1-like protein 1 [13]): -8.75 kcal/mol
- inhibition (Cardiac fibroblast [14]): Active
- Activity [15]: Active
- Activity [16]: Non-Toxic
- inhibition (Cardiac fibroblast [17]): Active
- Activity [18]: Active
- pKi (DCN1-like protein 4): 4.65
- Activity [19]: Active
- inhibition (Cardiac fibroblast [20]): Dose-Dependent Effect
- pIC50 (DCN1-like protein 1 [21]): 8.02
- pKi (DCN1-like protein 2): 4.73
- Activity [22]: Active
- Activity [23]: Active
- Activity [24]: Active
- pKi (DCN1-like protein 1 [25]): 8.08
- Activity [26]: Active
- -TdeltaS (DCN1-like protein 1 [27]): 11.2 kcal/mol
